Laboratory results taken from patent US12178791B2, “Haloallylamine sulfone derivative inhibitors of lysyl oxidases and uses thereof” (Syntara Limited, priority 2018, dated 2024).
Counter-ions that a name gives are not always drawn. Like-named read-outs stand apart in the source and are kept apart here.

Assays:
LOXL2 = LOXL2 (Homo sapiens (Human), UniProt Q9Y4K0); assay: LOXL2 inhibition, Amplex Red oxidation assay; format: biochemical; details: 30 min preincubation at 37 °C, putrescine substrate
Sequence of LOXL2 (Q9Y4K0 26-774): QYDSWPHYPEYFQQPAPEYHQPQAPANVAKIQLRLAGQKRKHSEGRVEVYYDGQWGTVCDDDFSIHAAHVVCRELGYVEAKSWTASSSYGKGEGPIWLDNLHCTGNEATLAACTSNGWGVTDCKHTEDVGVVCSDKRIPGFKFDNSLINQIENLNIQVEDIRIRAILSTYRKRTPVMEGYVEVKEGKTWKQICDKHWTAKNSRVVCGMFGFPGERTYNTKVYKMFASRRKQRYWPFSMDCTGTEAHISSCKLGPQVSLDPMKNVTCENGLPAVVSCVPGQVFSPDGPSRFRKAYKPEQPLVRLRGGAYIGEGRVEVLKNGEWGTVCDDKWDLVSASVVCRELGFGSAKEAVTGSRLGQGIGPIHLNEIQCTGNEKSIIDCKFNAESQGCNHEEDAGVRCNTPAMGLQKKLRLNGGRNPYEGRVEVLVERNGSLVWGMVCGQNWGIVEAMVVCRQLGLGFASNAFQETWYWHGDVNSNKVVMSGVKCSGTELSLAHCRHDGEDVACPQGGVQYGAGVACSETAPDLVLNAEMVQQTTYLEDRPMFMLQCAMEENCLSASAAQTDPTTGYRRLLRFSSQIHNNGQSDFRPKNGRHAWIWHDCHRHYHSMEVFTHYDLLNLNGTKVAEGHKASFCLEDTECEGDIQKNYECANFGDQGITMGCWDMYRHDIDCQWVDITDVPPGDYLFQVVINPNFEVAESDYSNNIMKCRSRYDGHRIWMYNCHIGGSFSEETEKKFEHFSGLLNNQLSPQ
Method in brief: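 LOXL2 in 1.2 M urea, 50 mM sodium borate pH 8.2 was preincubated with compound (11-point curve) for 30 min at 37 °C; mofegiline/pargyline were added only for non-purified enzyme. Reaction mix held 2× KM putrescine (10 mM), 120 μM Amplex Red and 1.5 U/mL HRP. H2O2 fluorescence (ex 565/em 590 nm) was read over 30 min, and IC50 came from slopes.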

[1] = molecular target: Human recombinant SSAO/VAP-1 (Homo sapiens (Human), UniProt Q16853); assay: Inhibition of human recombinant SSAO/VAP-1; format: biochemical
Sequence of Human recombinant SSAO/VAP-1 (Q16853 34-763): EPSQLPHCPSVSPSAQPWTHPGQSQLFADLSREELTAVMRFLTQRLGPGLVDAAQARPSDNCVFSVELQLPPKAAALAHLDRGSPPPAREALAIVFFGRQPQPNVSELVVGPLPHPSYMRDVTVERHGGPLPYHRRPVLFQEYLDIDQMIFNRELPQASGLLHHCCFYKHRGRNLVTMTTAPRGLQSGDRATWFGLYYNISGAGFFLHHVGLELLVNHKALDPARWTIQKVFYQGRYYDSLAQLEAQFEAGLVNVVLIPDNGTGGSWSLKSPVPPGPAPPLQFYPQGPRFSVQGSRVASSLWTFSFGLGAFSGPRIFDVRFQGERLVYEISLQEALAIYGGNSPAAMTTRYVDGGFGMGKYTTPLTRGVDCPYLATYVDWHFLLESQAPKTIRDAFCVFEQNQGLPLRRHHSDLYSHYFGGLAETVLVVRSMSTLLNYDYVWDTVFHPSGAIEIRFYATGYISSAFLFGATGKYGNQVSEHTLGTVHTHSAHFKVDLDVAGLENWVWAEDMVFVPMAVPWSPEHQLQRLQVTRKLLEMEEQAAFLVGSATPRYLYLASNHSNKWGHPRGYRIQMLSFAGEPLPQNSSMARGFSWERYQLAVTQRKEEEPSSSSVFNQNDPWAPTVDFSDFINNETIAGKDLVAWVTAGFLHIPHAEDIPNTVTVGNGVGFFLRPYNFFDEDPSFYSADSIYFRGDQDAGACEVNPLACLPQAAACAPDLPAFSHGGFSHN
Method in brief: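 Purified enzyme (residues 34-763, expressed in CHO Lec8 cells; 0.25 μg/mL in 0.1 M sodium phosphate pH 7.4) was preincubated with compound 30 min at 37 °C. An added mix held 600 μM benzylamine, 120 μM Amplex Red and 1.5 U/mL HRP. Fluorescence (ex 565/em 590 nm) was read every 2.5 min for 30 min at 37 °C, and IC50 was derived from kinetic slopes over 4-11-point curves.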

[2] = In vivo pharmacokinetics, plasma concentration after p.o. dosing; parameters: species or system Wistar rats; details: for concentration at 0.25 h / concentration at 0.5 h / concentration at 1 h / concentration at 2 h / concentration at 3 h / concentration at 5 h / concentration at 8 h / concentration at 4 h: male, Wistar, plasma, po, rat; for concentration at 0.5 h: 0.50 hours; for plasma concentrations relative to the IC50: rat plasma, after 8 hours
Protocol: Test compounds (10 mg/kg and 30 mg/kg in PBS, p.o. n=3) were administered to 7-9 weeks old male Wistar rats. Test compound blood samples were collected at time points from 0.25 h-8.00 h (Compound 1); 0.5 h-8.00 h (Compound 33) post administration, from tail vein.
Sample preparation: 20 μL of calibration samples (in single), QC samples (in duplicate) and rat plasma samples were mixed with 60 μL acetonitrile containing internal standard (IS; 200 ng/mL of tolbutamide and 50 ng/mL propanolol) in Eppendorf tubes. The mixture was vortexed for 1 min, then centrifuged for 10 min, 50 μL of supernatant was transferred to a 96 well-plate with 100 μL water. After shaking for 10 min, 10 μL was injected into the liquid chromatography mass spectrometry (LC-MS/MS) system for analysis.
HPLC: Agilent 1100; Mass Spectrometer: API 4000
Column: Phenomenex Gemini C18 5 μm 50×4.6 mm
Mobile phase: 0.1% formic acid in water, 0.1% formic acid in acetonitrile
HPLC: Shimadzu LC30AD; Mass Spectrometer: API 4000
For dilution samples: 10 μL sample was added to 90 μL blank rat plasma. The mixture was precipitated with 300 μL acetonitrile containing IS in Eppendorf tubes. The mixture was vortexed for 1 min, then centrifuged for 10 min, 50 μL supernatant was transferred to a 96 well-plate with 100 μL water. After shaking for 10 min, 10 μL was injected into the LC-MS/MS system for analysis. Determined, mean plasma concentrations for Compounds 1 and 33 are shown in Table 5 and Table 6 respectively.

[3] = 30 min preincubation at 37 °C, benzylamine 600 μM, read-out: SSAO/VAP-1 Activity IC50

| Compound | IC50 (LOXL2) | IC50 [1, 3] | IC50 ([1]; second Table 6 (Example 38), read-out: Recombinant human SSAO (rhSSAO) inhibition (IC50)) | concentration at 0.25 h ([2]; 10 mg/kg p.o.) | concentration at 0.5 h ([2]; 10 mg/kg p.o.) | concentration at 1 h ([2]; 10 mg/kg p.o.) | concentration at 2 h ([2]; 10 mg/kg p.o.) | concentration at 3 h ([2]; 10 mg/kg p.o.) | concentration at 5 h ([2]; 10 mg/kg p.o.) | concentration at 8 h ([2]; 10 mg/kg p.o.) | concentration at 0.25 h ([2]; 30 mg/kg p.o.) | concentration at 0.5 h ([2]; 30 mg/kg p.o.) | concentration at 1 h ([2]; 30 mg/kg p.o.) | concentration at 2 h ([2]; 30 mg/kg p.o.) | concentration at 3 h ([2]; 30 mg/kg p.o.) | concentration at 5 h ([2]; 30 mg/kg p.o.) | concentration at 8 h ([2]; 30 mg/kg p.o.) | plasma concentrations relative to the IC50 [2] | concentration at 4 h ([2]; 10 mg/kg p.o.) | concentration at 4 h ([2]; 30 mg/kg p.o.) |
| --- | --- | --- | --- | --- | --- | --- | --- | --- | --- | --- | --- | --- | --- | --- | --- | --- | --- | --- | --- | --- |
| NC/C=C(\F)CS(=O)(=O)c1ccccc1 [Compound 1, (Z)-3-fluoro-4-(phenylsulfonyl)but-2-en-1-amine hydrochloride] | < 10 µM | > 30 µM | > 100 µM | 379 ng/mL | 736 ng/mL | 450 ng/mL | 134 ng/mL | 66.4 ng/mL | 27.2 ng/mL | 6.4 ng/mL | 1060 ng/mL | 2090 ng/mL | 1200 ng/mL | 657 ng/mL | 238 ng/mL | 41.3 ng/mL | 13.5 ng/mL | far below the IC50 | – | – |
| NC/C=C(\F)CS(=O)(=O)c1cccc2cccnc12 [Compound 33, (Z)-3-fluoro-4-(quinolin-8-ylsulfonyl)but-2-en-1-amine dihydrochloride] | < 1 µM | > 10 µM | – | – | 771 ng/mL | 548 ng/mL | 246 ng/mL | – | – | 8.4 ng/mL | – | 3710 ng/mL | 3010 ng/mL | 1470 ng/mL | – | – | 13.7 ng/mL | far below the IC50 | 56.4 ng/mL | 185 ng/mL |
